From patent US8476298B2 (Exelixis, Inc., priority 2003, dated 2013)
Where two headings read alike, the source gives them in different places.

Tests used:
[1] = biological target: T1, Flt-3 (baculovirus expressed human Flt-3 kinase domain R571-S993) (Homo sapiens, UniProt P36888); assay: biochemical; conditions: read-out: flt3 IC50;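 further: Luciferase-coupled chemiluminescent kinase assay, activity read as percent ATP left after a 3 h reaction at room temperature, ATP near KM, 10-point dose-response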
T1 construct: human Flt-3 kinase domain R571-S993; host or cells: baculovirus expression
T1 sequence (P36888 571-993): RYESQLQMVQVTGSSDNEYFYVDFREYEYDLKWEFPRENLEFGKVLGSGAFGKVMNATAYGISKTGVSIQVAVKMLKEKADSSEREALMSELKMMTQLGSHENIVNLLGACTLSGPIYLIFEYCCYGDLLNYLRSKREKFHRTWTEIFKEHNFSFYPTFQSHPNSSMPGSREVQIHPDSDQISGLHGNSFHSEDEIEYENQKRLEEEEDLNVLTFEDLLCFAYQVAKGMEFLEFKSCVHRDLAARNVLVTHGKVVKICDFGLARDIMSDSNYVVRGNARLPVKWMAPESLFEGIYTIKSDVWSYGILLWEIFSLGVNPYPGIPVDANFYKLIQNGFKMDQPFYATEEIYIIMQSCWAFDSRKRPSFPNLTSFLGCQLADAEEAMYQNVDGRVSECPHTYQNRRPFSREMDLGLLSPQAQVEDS

[2] = biological target: T2, c-Met (baculovirus expressed human c-Met kinase domain P948-S1343) (Homo sapiens, UniProt P08581); assay: c-Met Luciferase-Coupled Chemiluminescent Kinase assay (LCCA); type: biochemical;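 further: kinase activity read as percent ATP left after reaction, by luciferase-luciferin chemiluminescence, with 1 µM ATP and 1 µM poly-EY substrate, 2 h at ambient temperature, 10-point dose-response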
T2 construct: human c-Met kinase domain P948-S1343; host or cells: baculovirus expression

[3] = biological target: T3, KDR (baculovirus expressed human KDR kinase domain D807-V1356) (Homo sapiens, UniProt P35968); assay: biochemical;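 further: Luciferase-coupled chemiluminescent kinase assay, activity read as percent ATP left after 4 h reaction at ambient temperature, ATP near KM, 10-point dose-response in 384-well plates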
T3 construct: human KDR kinase domain D807-V1356; host or cells: baculovirus expression

[4] = Table 4, inhibition as IC50 class

T3 sequence (P35968 807-1356): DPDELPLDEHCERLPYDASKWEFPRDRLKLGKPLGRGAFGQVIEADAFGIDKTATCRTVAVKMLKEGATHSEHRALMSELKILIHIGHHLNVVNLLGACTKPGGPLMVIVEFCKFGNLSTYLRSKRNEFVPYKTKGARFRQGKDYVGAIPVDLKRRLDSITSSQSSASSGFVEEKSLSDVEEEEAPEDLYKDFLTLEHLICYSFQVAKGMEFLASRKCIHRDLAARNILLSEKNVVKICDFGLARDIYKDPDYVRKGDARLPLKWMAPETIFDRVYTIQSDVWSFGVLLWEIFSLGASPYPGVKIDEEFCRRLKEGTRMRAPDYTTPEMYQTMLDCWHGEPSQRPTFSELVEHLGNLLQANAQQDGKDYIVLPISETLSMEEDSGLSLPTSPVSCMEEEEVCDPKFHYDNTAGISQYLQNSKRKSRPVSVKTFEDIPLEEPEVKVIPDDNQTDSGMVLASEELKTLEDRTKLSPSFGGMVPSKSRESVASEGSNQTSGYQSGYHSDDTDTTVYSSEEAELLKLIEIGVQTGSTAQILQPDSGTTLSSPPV
T2 sequence (P08581 1011-1343 limits assumed): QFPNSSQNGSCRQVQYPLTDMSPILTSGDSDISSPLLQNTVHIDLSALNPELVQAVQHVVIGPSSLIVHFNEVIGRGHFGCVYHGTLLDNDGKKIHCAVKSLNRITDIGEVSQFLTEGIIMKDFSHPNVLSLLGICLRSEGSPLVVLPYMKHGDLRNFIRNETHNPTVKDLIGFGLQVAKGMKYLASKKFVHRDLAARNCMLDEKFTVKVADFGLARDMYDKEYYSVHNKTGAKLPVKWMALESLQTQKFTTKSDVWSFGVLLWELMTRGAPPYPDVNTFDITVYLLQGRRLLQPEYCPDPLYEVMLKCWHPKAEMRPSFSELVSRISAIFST

Compound	IC50 [1, 4]	IC50 [2, 4]	IC50 [3, 4]	IC50 [1]	IC50 [2]	IC50 [3]
COc1cc(CNC(=O)C(=O)Nc2ccc(Oc3ccnc4cc(OCC5CCNCC5)c(OC)cc34)c(F)c2)cc(OC)c1 [Example 269, N-{[3,5-bis(methyloxy)phenyl]methyl}-N′-[3-fluoro-4-({6-(methyloxy)-7-[(piperidin-4-ylmethyl)oxy]quinolin-4-yl}oxy)phenyl]ethanediamide]	< 50 nM	< 50 nM	< 50 nM			
COc1cc2nccc(Oc3ccc(NC(=O)C4(C(=O)Nc5ccc(F)cc5)CNC4)cc3)c2cc1OC [Example 353, N-(4-{[6,7-bis(methyloxy)quinolin-4-yl]oxy}phenyl)-N′-(4-fluorophenyl)azetidine-3,3-dicarboxamide]				500 to 5000 nM	50 to 500 nM	500 to 5000 nM
COc1cc2c(Oc3ccc(NC(=O)C4(C(=O)Nc5ccc(F)cc5)CC4)cc3F)ccnc2cc1OCCCN1CCN(C(C)C)CC1 [Example 357, N-(3-fluoro-4-{[7-({3-[4-(1-methylethyl)piperazin-1-yl]propyl}oxy)-6-(methyloxy)quinolin-4-yl]oxy}phenyl)-N′-(4-fluorophenyl)cyclopropane-1,1-dicarboxamide]				< 50 nM	< 50 nM	< 50 nM
CCN(CC)CCCOc1cc2nccc(Oc3ccc(NC(=O)[C@]4(C(=O)Nc5ccc(F)cc5)C[C@H]4C)cc3F)c2cc1OC [Example 359, (1R,2R)-N-(4-{[7-{[3-(diethylamino)propyl]oxy}-6-(methyloxy)quinolin-4-yl]oxy}-3-fluorophenyl)-N′-(4-fluorophenyl)-2-methylcyclopropane-1,1-dicarboxamide]				< 50 nM	< 50 nM	< 50 nM
CCN(CC)CCOc1cc2nccc(Oc3ccc(NC(=O)[C@]4(C(=O)Nc5ccc(F)cc5)C[C@H]4C)cc3F)c2cc1OC [Example 360, (1R,2R)-N-(4-{[7-{[2-(diethylamino)ethyl]oxy}-6-(methyloxy)quinolin-4-yl]oxy}-3-fluorophenyl)-N′-(4-fluorophenyl)-2-methylcyclopropane-1,1-dicarboxamide]				< 50 nM	< 50 nM	< 50 nM
CCN(CC)CCCOc1cc2nccc(Oc3ccc(NC(=O)[C@]4(C(=O)Nc5ccc(F)cc5)C[C@@H]4C)cc3F)c2cc1OC [Example 361, (1R,2S)-N-(4-{[7-{[3-(diethylamino)propyl]oxy}-6-(methyloxy)quinolin-4-yl]oxy}-3-fluorophenyl)-N′-(4-fluorophenyl)-2-methylcyclopropane-1,1-dicarboxamide]				< 50 nM	< 50 nM	< 50 nM
CCN(CC)CCOc1cc2nccc(Oc3ccc(NC(=O)[C@]4(C(=O)Nc5ccc(F)cc5)C[C@@H]4C)cc3F)c2cc1OC [Example 362, (1R,2S)-N-(4-{[7-{[2-(diethylamino)ethyl]oxy}-6-(methyloxy)quinolin-4-yl]oxy}-3-fluorophenyl)-N′-(4-fluorophenyl)-2-methylcyclopropane-1,1-dicarboxamide]				< 50 nM	< 50 nM	< 50 nM
CCN(CC)CCOc1cc2ncnc(Oc3ccc(NC(=O)C4(C(=O)Nc5ccc(F)cc5)CCC4)cc3F)c2cc1OC [Example 363, N-(4-{[7-{[2-(diethylamino)ethyl]oxy}-6-(methyloxy)quinazolin-4-yl]oxy}-3-fluorophenyl)-N′-(4-fluorophenyl)cyclobutane-1,1-dicarboxamide]					< 50 nM	< 50 nM
COc1cc2nccc(Oc3ccc(NC(=O)C4(C(=O)Nc5cccc(CN6CCCCC6)c5)CC4)cc3)c2cc1OC [Example 400, N-(4-{[6,7-bis(methyloxy)quinolin-4-yl]oxy}phenyl)-N′-[3-(piperidin-1-ylmethyl)phenyl]cyclopropane-1,1-dicarboxamide]					50 to 500 nM	< 50 nM
COc1cc2nccc(Oc3ccc(NC(=O)C4(C(=O)Nc5cccc(CN6CCCC6)c5)CC4)cc3)c2cc1OC [Example 401, N-(4-{[6,7-bis(methyloxy)quinolin-4-yl]oxy}phenyl)-N′-[3-(pyrrolidin-1-ylmethyl)phenyl]cyclopropane-1,1-dicarboxamide]					< 50 nM	< 50 nM

Other lines, results leading:

IC50 [1, 4]	IC50 [2, 4]	IC50 [3, 4]	IC50 [1]	IC50 [2]	IC50 [3]	Compound
			< 50 nM	< 50 nM	< 50 nM	CCN(CC)CCCOc1cc2c(Oc3ccc(NC(=O)C4(C(=O)Nc5ccc(F)cc5)CC4)cc3F)ccnc2cc1OC [Example 344, N-(4-{[6-{[3-(diethylamino)propyl]oxy}-7-(methyloxy)quinolin-4-yl]oxy}-3-fluorophenyl)-N′-(4-fluorophenyl)cyclopropane-1,1-dicarboxamide]
			< 50 nM	< 50 nM	< 50 nM	CCN(CC)CCOc1cc2c(Oc3ccc(NC(=O)C4(C(=O)Nc5ccc(F)cc5)CC4)cc3F)ccnc2cc1OC [Example 345, N-(4-{[6-{[2-(diethylamino)ethyl]oxy}-7-(methyloxy)quinolin-4-yl]oxy}-3-fluorophenyl)-N′-(4-fluorophenyl)cyclopropane-1,1-dicarboxamide]
			50 to 500 nM	< 50 nM	< 50 nM	COc1cc2c(Oc3ccc(NC(=O)C4(C(=O)Nc5ccc(F)cc5)CC4)cc3F)ccnc2cc1OCCCN1CCN(C(=O)OC(C)(C)C)CC1 [Example 346, 1,1-dimethylethyl 4-(3-{[4-[(2-fluoro-4-{[(1-{[(4-fluorophenyl)amino]carbonyl}cyclopropyl)carbonyl]amino}phenyl)oxy]-6-(methyloxy)quinolin-7-yl]oxy}propyl)piperazine-1-carboxylate]
			50 to 500 nM	< 50 nM	< 50 nM	CCN(CC)CCOc1cc2ncnc(Oc3ccc(NC(=O)[C@]4(C(=O)Nc5ccc(F)cc5)C[C@H]4C)cc3F)c2cc1OC [Example 348, (1R,2R)-N-(4-{[7-{[2-(diethylamino)ethyl]oxy}-6-(methyloxy)quinazolin-4-yl]oxy}-3-fluorophenyl)-N′-(4-fluorophenyl)-2-methylcyclopropane-1,1-dicarboxamide]
			< 50 nM	< 50 nM	< 50 nM	CCN(CC)CCCOc1cc2ncnc(Oc3ccc(NC(=O)C4(C(=O)Nc5ccc(F)cc5)CC4)cc3F)c2cc1OC [Example 349, N-(4-{[7-{[3-(diethylamino)propyl]oxy}-6-(methyloxy)quinazolin-4-yl]oxy}-3-fluorophenyl)-N′-(4-fluorophenyl)cyclopropane-1,1-dicarboxamide]
			< 50 nM	< 50 nM	< 50 nM	COc1cc2c(Oc3ccc(NC(=O)C4(C(=O)Nc5ccc(F)cc5)CC4)cc3F)ccnc2cc1OCCCN1CCN(C(C)=O)CC1 [Example 350, N-(4-{[7-{[3-(4-acetylpiperazin-1-yl)propyl]oxy}-6-(methyloxy)quinolin-4-yl]oxy}-3-fluorophenyl)-N′-(4-fluorophenyl)cyclopropane-1,1-dicarboxamide]
			50 to 500 nM	< 50 nM	< 50 nM	COc1cc2c(Oc3ccc(NC(=O)[C@]4(C(=O)Nc5ccc(F)cc5)C[C@H]4C)cc3F)ccnc2cc1OCCCN1CCN(C(=O)OC(C)(C)C)CC1 [Example 351, 1,1-dimethylethyl 4-(3-{[4-[(2-fluoro-4-{[((1R,2R)-1-{[(4-fluorophenyl)amino]carbonyl}-2-methylcyclopropyl)carbonyl]amino}phenyl)oxy]-6-(methyloxy)quinolin-7-yl]oxy}propyl)piperazine-1-carboxylate]
			500 to 5000 nM	< 50 nM	500 to 5000 nM	COc1cc2nccc(Oc3ccc(NC(=O)C4(C(=O)Nc5ccc(F)cc5)CN(Cc5ccccc5)C4)cc3)c2cc1OC [Example 352, N-(4-{[6,7-bis(methyloxy)quinolin-4-yl]oxy}phenyl)-N′-(4-fluorophenyl)-1-(phenylmethyl)azetidine-3,3-dicarboxamide]
			< 50 nM	< 50 nM	< 50 nM	COc1cc2c(Oc3ccc(NC(=O)[C@]4(C(=O)Nc5ccc(F)cc5)C[C@@H]4C)cc3F)ccnc2cc1OCCCN1CCN(C)CC1 [Example 354, (1R,2S)-N-{3-fluoro-4-[(6-(methyloxy)-7-{[3-(4-methylpiperazin-1-yl)propyl]oxy}quinolin-4-yl)oxy]phenyl}-N′-(4-fluorophenyl)-2-methylcyclopropane-1,1-dicarboxamide]
			< 50 nM	< 50 nM	< 50 nM	COc1cc2c(Oc3ccc(NC(=O)[C@]4(C(=O)Nc5ccc(F)cc5)C[C@H]4C)cc3F)ccnc2cc1OCCCN1CCN(C)CC1 [Example 355, (1R,2R)-N-{3-fluoro-4-[(6-(methyloxy)-7-{[3-(4-methylpiperazin-1-yl)propyl]oxy}quinolin-4-yl)oxy]phenyl}-N′-(4-fluorophenyl)-2-methylcyclopropane-1,1-dicarboxamide]
			< 50 nM	< 50 nM	< 50 nM	COc1cc2c(Oc3ccc(NC(=O)[C@]4(C(=O)Nc5ccc(F)cc5)C[C@H]4C)cc3F)ccnc2cc1OCCCN1CCNCC1 [Example 356, (1R,2R)-N-[3-fluoro-4-({6-(methyloxy)-7-[(3-piperazin-1-ylpropyl)oxy]quinolin-4-yl}oxy)phenyl]-N′-(4-fluorophenyl)-2-methylcyclopropane-1,1-dicarboxamide]
